Experimental data from ChEMBL document CHEMBL5030563, “Structure-Based Design of Dual-Acting Compounds Targeting Adenosine A2A Receptor and Histone Deacetylase as Novel Tumor Immunotherapeutic Agents” (J Med Chem, 2021).

Columns and labels:
[1] = biological target: T1, Polyamine deacetylase HDAC10 (Homo sapiens, UniProt Q969S8); experiment: Inhibition of HDAC10 (unknown origin) assessed as release of 7-amino-4-methylcoumarin incubated in room temperature for 15 min measured by Spectra max microtitre plate reader
T1 sequence (Q969S8 whole entry): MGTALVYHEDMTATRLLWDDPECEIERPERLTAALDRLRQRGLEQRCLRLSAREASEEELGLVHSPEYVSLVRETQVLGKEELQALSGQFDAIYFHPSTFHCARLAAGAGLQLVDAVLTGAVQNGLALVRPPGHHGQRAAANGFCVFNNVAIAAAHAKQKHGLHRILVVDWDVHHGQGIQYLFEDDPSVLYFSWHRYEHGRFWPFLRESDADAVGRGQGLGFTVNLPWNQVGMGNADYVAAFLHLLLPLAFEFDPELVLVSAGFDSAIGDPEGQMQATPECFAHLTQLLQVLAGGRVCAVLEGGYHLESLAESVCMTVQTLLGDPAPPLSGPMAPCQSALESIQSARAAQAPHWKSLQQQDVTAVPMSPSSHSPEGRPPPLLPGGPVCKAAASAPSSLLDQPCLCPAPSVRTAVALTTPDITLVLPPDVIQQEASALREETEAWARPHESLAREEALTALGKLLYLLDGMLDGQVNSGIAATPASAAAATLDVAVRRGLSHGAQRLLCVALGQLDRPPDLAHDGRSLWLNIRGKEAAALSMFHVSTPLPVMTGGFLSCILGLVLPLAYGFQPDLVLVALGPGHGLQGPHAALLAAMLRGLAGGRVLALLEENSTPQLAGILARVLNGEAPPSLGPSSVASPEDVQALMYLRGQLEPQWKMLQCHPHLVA

[2] = Initial plasma concentration in ICR mouse at 5 mg/kg, iv up to 24 hrs by LC-MS/MS analysis; assay type: ADME, organism-based
MC-38 [3] = experiment: Antitumour activity against mouse MC38 cells in C57BL/6 mouse assessed as tumour growth inhibition at 60 mg/kg, ip, bid measured after 9 days relative to control; assay type: functional; details: MC-38, ip, 216 h, time 9 day, read-out: TGI
[4] = Elimination rate constant in ICR mouse at 20 mg/kg, ip up to 24 hrs by LC-MS/MS analysis; assay type: ADME, organism-based; details: in vivo
Adenosine receptor A2b = biological target: T2, Adenosine receptor A2b (Homo sapiens, UniProt P29275); experiment: Displacement of [3H]DPCPX from human adenosine A2B receptor membrane (unknown origin) measured after 60 mins by scintillation counting analysis; assay type: cell membranes
T2 sequence (P29275 whole entry): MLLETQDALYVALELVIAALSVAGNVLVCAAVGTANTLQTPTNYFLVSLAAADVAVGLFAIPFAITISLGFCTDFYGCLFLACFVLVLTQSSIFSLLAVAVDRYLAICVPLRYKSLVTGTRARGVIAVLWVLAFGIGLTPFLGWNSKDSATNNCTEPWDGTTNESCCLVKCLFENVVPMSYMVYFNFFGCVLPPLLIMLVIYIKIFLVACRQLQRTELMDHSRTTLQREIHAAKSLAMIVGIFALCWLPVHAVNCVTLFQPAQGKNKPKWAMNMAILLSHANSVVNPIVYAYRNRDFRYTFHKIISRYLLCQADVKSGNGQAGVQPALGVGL

MC-38 [5] = experiment: Antitumour activity against mouse MC38 cells in C57BL/6 mouse assessed as tumour growth inhibition at 30 mg/kg, ip, bid measured after 9 days relative to control; assay type: functional; details: MC-38, ip, 216 h, time 9 day, read-out: TGI
MC-38 [6] = experiment: Antiproliferative activity against mouse MC38 cells measured after 72 hrs by CCK8 assay; assay type: functional; details: Mus musculus, MC-38
[7] = Half life in ICR mouse at 20 mg/kg, po by LC-MS/MS analysis; assay type: ADME, organism-based; details: in vivo
[8] = Tmax in ICR mouse at 20 mg/kg, ip up to 24 hrs by LC-MS/MS analysis; assay type: ADME, organism-based; details: in vivo
Histone deacetylase 11 = biological target: T3, Histone deacetylase 11 (Homo sapiens, UniProt Q96DB2); experiment: Inhibition of HDAC11 (unknown origin) assessed as release of 7-amino-4-methylcoumarin incubated in room temperature for 15 min measured by Spectra max microtitre plate reader
T3 sequence (Q96DB2 whole entry): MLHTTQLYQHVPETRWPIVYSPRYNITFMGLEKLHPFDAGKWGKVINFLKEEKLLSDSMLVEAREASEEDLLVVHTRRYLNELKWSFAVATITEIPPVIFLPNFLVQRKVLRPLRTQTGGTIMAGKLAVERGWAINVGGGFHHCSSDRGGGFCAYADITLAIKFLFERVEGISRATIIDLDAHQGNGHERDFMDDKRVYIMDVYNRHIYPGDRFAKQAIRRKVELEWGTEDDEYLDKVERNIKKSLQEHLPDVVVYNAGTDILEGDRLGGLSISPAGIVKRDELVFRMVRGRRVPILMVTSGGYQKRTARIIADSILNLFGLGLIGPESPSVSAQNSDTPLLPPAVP

[9] = Elimination rate constant in ICR mouse at 5 mg/kg, iv up to 24 hrs by LC-MS/MS analysis; assay type: ADME, organism-based; details: in vivo
CT26 = experiment: Antiproliferative activity against mouse CT26 cells measured after 72 hrs by CCK8 assay; assay type: functional; details: Mus musculus, CT26
[10] = AUC (0 to t) in ICR mouse at 20 mg/kg, po by LC-MS/MS analysis; assay type: ADME, organism-based; set-up: dose 20 mg/kg; details: in vivo

- IC50 [1]: 0.632 µM
- C0 at 24 h [2]: 4580 ng/mL
- k el at 24 h [4]: 0.000138 s⁻¹
- Ki (Adenosine receptor A2b): 0.35 µM
- half-life [7]: 1.97 h
- Tmax [8]: 0.417 h
- IC50 (Histone deacetylase 11): > 10 µM
- k el at 24 h [9]: 0.000678 s⁻¹
- GI50 (CT26): 6.1 µM
- AUC(0-t) [10]: 1770 ng·h/mL
SMILES: Nc1ccccc1NC(=O)c1ccc(CCn2ncc3c2nc(N)n2nc(-c4ccco4)nc32)cc1
- inhibition in vivo at 60 mg/kg (MC-38 [3]): 95.3%
- inhibition in vivo at 30 mg/kg (MC-38 [5]): 57.8%
- GI50 (MC-38 [6]): 6.2 µM
